Several values for one entry are separate records, joined by “and”; a condition that tells them apart may be missing. Equal values may be shown once. Toxic doses and inconclusive results are not listed.

For this assay, the system named is P388 leukemia ip, CD2F1 mice, survival T/C. Put plainly: NCI In Vivo Anticancer Drug Screen. Data for tumor model P388 Leukemia (intraperitoneal) in CD2F1 (CDF1) mice. The following applies: endpoint: median survival time, higher = longer survival. Summed up:
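Mice carrying the transplanted tumor received test compound or vehicle. Survival was recorded in each group, and the value is the treated-group measurement divided by that of the vehicle-treated control group.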

Setting [1] is: dose: 7.5 mg/kg/injection, schedule: Q01DX005 (ip), vehicle: saline with Tween-80.
Setting [2] is: dose: 15.0 mg/kg/injection, schedule: Q01DX005 (ip), vehicle: saline with Tween-80.
Setting [3] is: dose: 60.0 mg/kg/injection, schedule: Q01DX005 (ip), vehicle: saline with Tween-80.
Where [4] appears, read: dose: 50.0 mg/kg/injection, schedule: Q01DX005 (ip), vehicle: Klucel (hydroxypropylcellulose) (HPC).
The mark [5] stands for this setting: dose: 100.0 mg/kg/injection, schedule: Q01DX005 (ip), vehicle: Klucel (hydroxypropylcellulose) (HPC).
Setting [6] is: dose: 200.0 mg/kg/injection, schedule: Q01DX005 (ip), vehicle: Klucel (hydroxypropylcellulose) (HPC).
The mark [7] stands for this setting: dose: 100.0 mg/kg/injection, schedule: Q04DX003 (ip), vehicle: saline.
Where [8] appears, read: dose: 200.0 mg/kg/injection, schedule: Q04DX003 (ip), vehicle: saline.
Setting [9] is: dose: 120.0 mg/kg/injection, schedule: Q01DX005 (ip), vehicle: saline with Tween-80.
[10] abbreviates: dose: 240.0 mg/kg/injection, schedule: Q01DX005 (ip), vehicle: saline with Tween-80.
[11] abbreviates: dose: 50.0 mg/kg/injection, schedule: Q01DX009 (ip), vehicle: Klucel (hydroxypropylcellulose) (HPC).
Where [12] appears, read: dose: 100.0 mg/kg/injection, schedule: Q01DX009 (ip), vehicle: Klucel (hydroxypropylcellulose) (HPC).
Setting [13] is: dose: 200.0 mg/kg/injection, schedule: Q01DX009 (ip), vehicle: Klucel (hydroxypropylcellulose) (HPC).

Regarding `c1ccc(N=c2cnc3c(ccc4ccccc43)o2)cc1`, the T/C runs as follows: (dose: 3.75 mg/kg/injection, schedule: Q01DX005 (ip), vehicle: saline with Tween-80) 102 % of control; under setting [1], 112 % of control; under setting [2], 107 % of control and 116 % of control; under setting [3], 115 % of control.
Regarding `COc1cc(C2c3cc4c(cc3CCN2C(=O)c2ccccc2)OCO4)cc(OC)c1OC` (centres undefined), the T/C reads like this: under setting [4], 93 % of control; under setting [5], 91 % of control; under setting [6], 93 % of control.
Consider `Cc1cccc(N2CC3CC4C=CC3(C2)O4)c1` (centres undefined), for which the T/C is, setting by setting: (dose: 60.0 mg/kg/injection, schedule: Q01DX005 (ip), vehicle: Klucel (hydroxypropylcellulose) (HPC)) 96 % of control; (dose: 120.0 mg/kg/injection, schedule: Q01DX005 (ip), vehicle: Klucel (hydroxypropylcellulose) (HPC)) 96 % of control; (dose: 240.0 mg/kg/injection, schedule: Q01DX005 (ip), vehicle: Klucel (hydroxypropylcellulose) (HPC)) 96 % of control.
`CC(=O)OCC1OC(Nc2[nH]c(=O)nc3occc23)C(OC(C)=O)C(OC(C)=O)C1OC(C)=O` (centres undefined): the T/C by setting is: (dose: 100.0 mg/kg/injection, schedule: Q01DX001 (ip), vehicle: saline with Tween-80) 107 % of control; (dose: 200.0 mg/kg/injection, schedule: Q01DX001 (ip), vehicle: saline with Tween-80) 99 % of control; (dose: 400.0 mg/kg/injection, schedule: Q01DX001 (ip), vehicle: saline with Tween-80) 97 % of control.
As to `C[C@H]1C(=O)NC(=O)[C@@H]1C`, the T/C was 106 % of control (dose: 50.0 mg/kg/injection, schedule: Q01DX005 (ip), vehicle: saline); 100 % of control (dose: 100.0 mg/kg/injection, schedule: Q01DX005 (ip), vehicle: saline); 103 % of control (dose: 200.0 mg/kg/injection, schedule: Q01DX005 (ip), vehicle: saline).
On to `[O-][N+](=C1c2ccccc2-c2ccccc21)c1ccccc1`, for which the T/C (dose: 50.0 mg/kg/injection, schedule: Q04DX003 (ip), vehicle: saline) was 109 % of control; the T/C under setting [7] is 118 % of control; the T/C under setting [8] was 95 % of control.
As for `CC(=O)Oc1cc2c(cc1C(Nc1ccccn1)c1ccc3c(c1)OCO3)OCO2` (centres undefined), the T/C runs as follows: under setting [3], 98 % of control; under setting [9], 92 % of control; under setting [10], 97 % of control.
As to `CNC(=O)OCC1=CC(=O)C(OC)=C(OC)C1=O`, the T/C reads like this: under setting [1], 104 % of control; under setting [2], 100 % of control; (dose: 30.0 mg/kg/injection, schedule: Q01DX005 (ip), vehicle: saline with Tween-80) 100 % of control.
`CCCCC(=O)/C=C/c1ccc(Cl)c(Cl)c1`: the T/C reads like this: under setting [11], 98 % of control; under setting [12], 90 % of control; under setting [13], 95 % of control.
With `CC/C=c1/[nH]c(=O)/c(=C\c2ccc([N+](=O)[O-])cc2)[nH]c1=O`, the T/C is, setting by setting: (dose: 25.0 mg/kg/injection, schedule: Q01DX009 (ip), vehicle: Klucel (hydroxypropylcellulose) (HPC)) 90 % of control; under setting [11], 87 % of control and 91 % of control; under setting [12], 86 % of control; under setting [13], 94 % of control.
For the compound `CCOC(=O)C(=CNc1ccccc1-n1cccc1)C(=O)OCC`, the T/C under setting [4] is 100 % of control, the T/C under setting [5] was 108 % of control and the T/C under setting [6] is 93 % of control.
Take `Cc1ccc(C(C(=O)O)(c2ccc(C)c(C)c2)C(O)C(=O)O)cc1C` (centres undefined): the T/C reads like this: (dose: 100.0 mg/kg/injection, schedule: Q01DX001 (ip), vehicle: Klucel (hydroxypropylcellulose) (HPC)) 106 % of control; (dose: 200.0 mg/kg/injection, schedule: Q01DX001 (ip), vehicle: Klucel (hydroxypropylcellulose) (HPC)) 106 % of control; (dose: 400.0 mg/kg/injection, schedule: Q01DX001 (ip), vehicle: Klucel (hydroxypropylcellulose) (HPC)) 104 % of control.
As for `CC1=NOC(=O)/C1=C/c1ccc2c(c1)OCO2`, the T/C was 106 % of control (dose: 50.0 mg/kg/injection, schedule: Q01DX005 (ip), vehicle: saline with Tween-80); 105 % of control (dose: 100.0 mg/kg/injection, schedule: Q01DX005 (ip), vehicle: saline with Tween-80); 113 % of control (dose: 200.0 mg/kg/injection, schedule: Q01DX005 (ip), vehicle: saline with Tween-80).
`ClC(Cl)=C(Cl)C(Cl)=C(Cl)Cl`: the T/C is 108 % of control (dose: 50.0 mg/kg/injection, schedule: Q01DX001 (ip), vehicle: saline) and 100 % of control (dose: 100.0 mg/kg/injection, schedule: Q01DX001 (ip), vehicle: saline).
For `S=C1SSC(=S)C1=C1C=CN(Cc2ccccc2)C=C1`, the T/C (dose: 25.0 mg/kg/injection, schedule: Q04DX002 (ip), vehicle: saline with Tween-80) was 102 % of control; the T/C (dose: 50.0 mg/kg/injection, schedule: Q04DX002 (ip), vehicle: saline with Tween-80) was 99 % of control; the T/C (dose: 100.0 mg/kg/injection, schedule: Q04DX002 (ip), vehicle: saline with Tween-80) is 100 % of control.
Regarding `N/C(=N\O)c1nc2c(N)nc(-c3ccccc3)nc2nc1N`, the T/C runs as follows: (dose: 37.5 mg/kg/injection, schedule: Q01DX009 (ip), vehicle: saline with Tween-80) 109 % of control; (dose: 75.0 mg/kg/injection, schedule: Q01DX009 (ip), vehicle: saline with Tween-80) 95 % of control; (dose: 150.0 mg/kg/injection, schedule: Q01DX009 (ip), vehicle: saline with Tween-80) 97 % of control.
Turning to `COCC1N=C(COCc2ccccc2)OC1c1ccccc1` (centres undefined), the T/C under setting [3] is 100 % of control, the T/C under setting [9] is 95 % of control and the T/C under setting [10] was 100 % of control.
`CCC1=C[C@H]2CN(CCc3c([nH]c4ccccc34)[C@@](C(=O)OC)(c3cc4c(cc3OC)N(C)[C@H]3[C@@](O)(C(=O)NCCSC)[C@H](O)[C@]5(CC)C=CCN6CC[C@]43[C@@H]65)C2)C1`: the T/C is 117 % of control (dose: 0.5 mg/kg/injection, schedule: Q01DX001 (ip), vehicle: water); 118 % of control (dose: 2.0 mg/kg/injection, schedule: Q01DX001 (ip), vehicle: water); 154 % of control and 168 % of control (dose: 16.0 mg/kg/injection, schedule: Q01DX001 (ip), vehicle: water); 191 % of control (dose: 32.0 mg/kg/injection, schedule: Q01DX001 (ip), vehicle: water).
For `COc1cc2cnc(-c3ccncc3)cc2cc1OC`, the T/C was 95 % of control under setting [7] and 108 % of control under setting [8].
Regarding `CCOC(=O)C1(c2ccccc2)C(=O)Oc2ccccc21` (centres undefined), the T/C reads like this: (dose: 50.0 mg/kg/injection, schedule: Q01DX009 (ip), vehicle: saline with Tween-80) 107 % of control; (dose: 100.0 mg/kg/injection, schedule: Q01DX009 (ip), vehicle: saline with Tween-80) 124 % of control; (dose: 200.0 mg/kg/injection, schedule: Q01DX009 (ip), vehicle: saline with Tween-80) 106 % of control.
`O=c1c(-c2cccc(O)c2O)coc2cc(OC3OC(CO)C(O)C(O)C3O)ccc12` (centres undefined): the T/C under setting [3] is 100 % of control, the T/C under setting [9] is 100 % of control and the T/C under setting [10] is 97 % of control.
Turning to `Cc1ccc(NC(=S)NC(=O)/C=C/c2ccccc2)cc1Cl`, the T/C is 100 % of control (dose: 25.0 mg/kg/injection, schedule: Q01DX009 (ip), vehicle: saline); 105 % of control (dose: 50.0 mg/kg/injection, schedule: Q01DX009 (ip), vehicle: saline); 98 % of control (dose: 100.0 mg/kg/injection, schedule: Q01DX009 (ip), vehicle: saline); 97 % of control (dose: 200.0 mg/kg/injection, schedule: Q01DX009 (ip), vehicle: saline).
As to `NC(=O)[C@@H]1CCCN1C(=O)c1cccnc1`, the T/C is 98 % of control (dose: 60.0 mg/kg/injection, schedule: Q01DX005 (ip), vehicle: saline); 97 % of control (dose: 120.0 mg/kg/injection, schedule: Q01DX005 (ip), vehicle: saline); 103 % of control (dose: 240.0 mg/kg/injection, schedule: Q01DX005 (ip), vehicle: saline).
Regarding `O=C(Nc1ccc(Br)c2c(NC(=O)c3ccccc3)ccc(Br)c12)c1ccccc1`, the T/C reads like this: (dose: 1.5 mg/kg/injection, schedule: Q01DX009 (ip), vehicle: saline with Tween-80) 100 % of control; (dose: 3.0 mg/kg/injection, schedule: Q01DX009 (ip), vehicle: saline with Tween-80) 90 % of control; (dose: 6.0 mg/kg/injection, schedule: Q01DX009 (ip), vehicle: saline with Tween-80) 90 % of control.

Source of the values: PubChem BioAssay AID330 (DTP/NCI, 2004).
